Values after ≈ are worked out from the molar mass of the structure shown.
What was measured:
[1] = test system: Mycobacterium tuberculosis variant bovis; assay: Antimicrobial activity against Mycobacterium bovis BCG ATCC 35734 cultured in GAST media incubated for 5 days by resazurin microtiter assay; assay type: functional; settings: BCG ATCC 35734, 120 h, time 5 day
[2] = test system: Mycobacterium tuberculosis variant bovis; assay: Antimicrobial activity against Mycobacterium bovis BCG ATCC 35734 cultured in GAST-Fe media incubated for 5 days by resazurin microtiter assay; assay type: functional; settings: BCG ATCC 35734, 120 h, time 5 day

| SMILES | MIC90 [1] [µg/mL] | MIC90 [2] [µg/mL] |
| --- | --- | --- |
| Oc1ccccc1C1=NNC(c2ccc(Br)cc2)C1 (stereo not drawn) | 8 (≈ 25.2 µM) | 64 (≈ 202 µM) |
| Oc1ccccc1C1=NNC(c2ccc(Cl)cc2)C1 (stereo not drawn) | 8 (≈ 29.3 µM) | 32 (≈ 117 µM) |
| NC(=S)N1N=C(c2ccccc2O)CC1c1ccccc1 (stereo not drawn) | 16 (≈ 53.8 µM) | 32 (≈ 108 µM) |
| NC(=S)N1N=C(c2ccccc2O)CC1c1ccc(O)cc1 (stereo not drawn) | 16 (≈ 51.1 µM) | 32 (≈ 102 µM) |

— ChEMBL document CHEMBL5046254, “Mycobactin Analogues with Excellent Pharmacokinetic Profile Demonstrate Potent Antitubercular Specific Activity and Exceptional Efflux Pump Inhibition” (J Med Chem, 2022)
